# Results published in patent publication US9605015B2, “Polyene compound, method for preparing the same, and antifungal drug comprising novel polyene compound as active ingredient” (INHA-INDUSTRY PARTNERSHIP INSTITUTE, priority 2011, dated 2017).
# What was measured:
# [1] = system: erythrocytes in defibrinated horse blood; assay: In vitro measurement of hemolytic activity; format: cell-based; conditions: 37° C., 30 min
# Protocol: The hemolytic assay for the polyene macrolides was performed by monitoring the ability of the macrolides to cause lysis of erythrocytes in defibrinated horse blood (Gene. 111:61-68, 1992). Samples (0.1 ml) with different polyene macrolide concentrations (10 to 500 μg/ml in DMSO) were prepared from stock solutions of the purified polyenes (5 mg/ml in DMSO). The diluted samples were mixed with 0.9 ml horse blood-phosphate-buffered saline (PBS), which consisted of PBS buffer containing 2.5% defibrinated horse blood (KisanBiotech, Korea), and incubated in a water bath at 37° C. Samples were collected at 30 min, centrifuged at 5,000 rpm for 5 min, and the OD540 was measured. One hundred percent hemolysis was defined as the OD540 value obtained from a suspension of 2.5% horse blood in distilled water, and 0.9 ml horse blood-PBS with the addition of 0.1 ml DMSO was used as a blank. Each experiment was performed in triplicate, and samples containing nystatin were used as standards.
# [2] = system: Candida albicans ATCC 10231; assay: Antifungal activity analysis (growth inhibition in microtiter plates); format: cell-based; conditions: Table 5
# Protocol: The test organism used for the polyene macrolide bioactivity assays was Candida albicans ATCC 10231, which was grown in 120 μl of YM medium without NaCl (with an inoculum of 1,000 CFU per well) and 30 μl of diluted polyene macrolide samples. The antibiotics were diluted in methanol in series to ensure that concentrations resulting in no inhibition to complete inhibition of the growth of the test organism were used. The test organism cultures with diluted antibiotics were then incubated in 96-well microtiter plates at 30° C. without shaking. After 12, 14, and 16 h, growth was measured based on the optical density at 492 nm using a TECAN Infinite F50 microtiter plate reader. The optical density was plotted against the antibiotic concentration, and the MIC at which 50% of isolates are inhibited (MIC50) was estimated from the regression curve at 50% growth inhibition.
# [3] = Solubility measurement in aqueous Tris-HCl buffer by UV spectrophotometry; format: physicochemical; conditions: aqueous 10 mmol Tris-HCl buffer (pH 7.0)
# From the text: The polyene region of nystatin is extremely non-polar, which is presumed to promote hydrophobic interactions with sterols within the fungal cell membrane, and orients the polyol component of the molecule toward the internal aqueous channel. However, this low polarity also leads to significant difficulties in administration during human therapy. To investigate the effect of the additional N-acetyl-glucosamine moiety, the present inventors tested the solubility of the purified NPP as well as the nystatin A1 as a reference in an aqueous buffer solution of 10 mmol Tris-HCl (pH 7.0) using spectrophotometric methods.
# Particularly, stock solutions of nystatin A1 (Sigma, N6261) standard (1.2 mg/ml) and the purified NPP (12 mg/ml) were prepared in methanol. A 100 μl portion of each stock was freeze-dried under vacuum for 24 h. Either 50 μl (nystatin A1) or 2 μl (NPP) of aqueous 10 mmol Tris-HCl buffer (pH 7.0) was added to the dry polyenes, and the solution was saturated by extensive (>15 min) vortexing. After centrifugation, polyene concentrations in the solution were determined by measuring UV absorbance spectra on SHIMADZU UV-1601 UV/Vis spectrophotometer after appropriate dilution. Specifically, the characteristic tetraene UV peak at 306 nm was used for quantification with experimentally determined extinction coefficients (J. Med. Chem. 49:2431-2439, 2006).
smiles,measurement,setting,value
"C[C@@H]1[C@H](O)[C@@H](C)/C=C/C=C/CC/C=C/C=C/C=C/C=C/C(O[C@H]2O[C@H](C)[C@@H](O)[C@H](N)[C@@H]2O)CC2O[C@](O)(CC(O)C(O)CCC(O)CC(O)CC(O)CC(=O)O[C@H]1C)CC(O)C2C(=O)O (some centres unmarked) [nystatin, nystatin A1]",HC50,[1]; 2.5% defibrinated horse blood in PBS,33 µg/mL
same,"Hemolytic activity (HC50, μg/ml)","[1]; Table 5, horse blood",33 ± 0.54 µg/mL
same,"Antifungal activity (IC50, μg/ml)",[2],0.43 ± 0.02 µg/mL
same,solubility,[3]; Table 5,110 ± 30 µg/mL
same,solubility,[3],110 µg/mL
